Reference: patent publication US12678438B2, “Treatment of cancer with CDK inhibitors” (THE TRUSTEES OF THE UNIVERSITY OF PENNSYLVANIA, priority 2019, dated 2026)

How the values were obtained:
[1] = molecular target: CAK complex-CDK7/CyclinH/MAT1 (Homo sapiens, UniProt P50613); assay: In vitro kinase assay, CAK complex with GST-MED1 protein, immunoblot; assay type: biochemical; conditions: 60 min at 30° C.
Description: The kinase assay was performed by preparing the master mixture of 3 ul (5×) kinase assay buffer, 0.5 ul of 500 uM ATP (BPS Bioscience, 79603), 1.25 ul (1 ug/ul) Human Recombinant GST-MED1 protein (Lifespan Biosciences, LS-G59680-25), and 7.75 ul of kinase assay grade water per reaction for the desired number of reactions. […] Additionally, kinase assay reaction mixtures containing no ATP and CDK7 were used as negative controls. Next, CAK complex-CDK7/CyclinH/MAT1 enzyme (BPS Bioscience) was thawed and diluted to (10 ng/111) in 1× kinase assay buffer. The reactions were initiated by adding 10 ul of diluted CAK complex to the designated wells and incubated at 30° C. for 60 min. After the incubation the reaction was stopped, and the mixture were analyzed through western blotting.

VCaP CRPC xenograft = assay: VCaP CRPC mouse xenograft; assay type: in vivo
Description: In vivo efficacy studies were performed in accordance with protocols approved by the Institutional Animal Care and Use Committee (IACUC) at the University of Pennsylvania and in compliance with all regulatory standards. Four to five-week-old male NOD SCID gamma mice (Jackson Lab, 005557) were procured from Jackson Laboratory. In the VCaP experiment, 2×10^6 VCaP prostate cancer cells suspended in 80 μL of RPMI-1640 with 50% Matrigel (BD Biosciences) were implanted subcutaneously into the dorsal flank of the mice. The animals were castrated when the tumor volumes reached approximately 150 mm^3. […] Tumor growth was recorded using digital calipers and tumor volumes were estimated using the formula (π/6) (L×W^2), where L=length and W=width of tumor. Body weight during the study was also monitored. At the end of the treatment regimen the mice were sacrificed and were extracted for further analysis.
Xenograft tumor pieces were fixed in 4% of formaldehyde for 48 h and paraffin embedded. Paraffin embedded sections from the tumors of treated and untreated mice were deparaffinized, rehydrated and subjected to epitope retrieval stained with a phospho-MED1 antibody (1:4000/1:2000), anti-PSA antibody (1:1000), anti-Ki67 (1:500), or anti-cleaved caspase3 antibody (1:1000) followed by peroxidase-based detection and counterstaining with hematoxylin using the Leica Bond Rxm system. Photographs were taken on a Leica DMI6000B inverted light and fluorescent microscope with a 20× objective. images were assessed and quantified in ImageJ.
Whole blood of the xenograft bearing mice was collected with heparinized blood collecting tubes (Fisherbrand, 02-668-10), and cells were removed from plasma by centrifugation for 10 minutes at 2,000 g at 4° C. The plasma was used to detect PSA levels using the Human PSA ELBA Kit (Abeam, ab113327) following the manufacturer's protocol. In brief, we diluted the mice plasma ten time with Assay Diluent A, and LNCaP culturing media was used as a positive control. Serially diluted standards were used for quantification. 100 μL of each sample was loaded on the human PSA specific antibody coated 96-well plate in duplicates and the plate was incubated overnight at 4° C. to allow the PSA presented in samples to bind to the wells. The wells were then washed, and biotinylated anti-Human PSA antibody was added. After washing away unbound biotinylated antibody, HRP-conjugated streptavidin was added into the wells. The wells were again washed and developed with a TMB substrate solution followed by the addition of the stop solution and colorimetric measurement of the intensity at 450 nm. The concentrations of the PSA in the samples were calculated based on the standard curve.

AR p-S515 = assay: Immunoblot of AR p-S515; assay type: cell-based, human; conditions: LNCaP, 200 nM, 12 h
Description: Cell lysates were prepared with RIPA buffer (Boston Bioproducts, BP-115DG)-10 mM Tris-HCl pH 7.5, 1 mM EDTA, 400 mM NaCl, 0.5% NP-40 and 1 mM DTT, supplemented with protease inhibitor cocktail (Pierce, A32965) and phosphatase inhibitor (Thermo, 1861280). For immunoblotting 200 μg total protein extract was boiled in sample buffer and 15-25 μg aliquots were separated by SDS-PAGE and transferred onto Polyvinylidene Difluoride membrane (GE Healthcare, IPVH00010). The membrane was incubated for one hour in blocking buffer [Tris-buffered saline, 0.1% Tween (TBS-T), 5% nonfat dry milk followed by overnight incubation on a rocker at 4° C. with the primary antibody. Following a wash with TBS-T, the blot was incubated with horseradish peroxidase-conjugated secondary antibody for 2 hrs on a rocker at room temperature. The blots were washed again and signals were visualized using enhanced chemiluminescence system as per manufacturer's protocol (GE Healthcare) or Kwik Quant Imager (Kindle Biosciences). […]

p-MED1 (p-T1457 MED1) = assay: Immunoblot of p-MED1 in AR-positive PCa cell lines (VCaP, LNCaP, 22RV1); assay type: cell-based, human
Description: Cell lysates were prepared with RIPA buffer (Boston Bioproducts, BP-115DG)-10 mM Tris-HCl pH 7.5, 1 mM EDTA, 400 mM NaCl, 0.5% NP-40 and 1 mM DTT, supplemented with protease inhibitor cocktail (Pierce, A32965) and phosphatase inhibitor (Thermo, 1861280). For immunoblotting 200 μg total protein extract was boiled in sample buffer and 15-25 μg aliquots were separated by SDS-PAGE and transferred onto Polyvinylidene Difluoride membrane (GE Healthcare, IPVH00010). The membrane was incubated for one hour in blocking buffer [Tris-buffered saline, 0.1% Tween (TBS-T), 5% nonfat dry milk followed by overnight incubation on a rocker at 4° C. with the primary antibody. Following a wash with TBS-T, the blot was incubated with horseradish peroxidase-conjugated secondary antibody for 2 hrs on a rocker at room temperature. The blots were washed again and signals were visualized using enhanced chemiluminescence system as per manufacturer's protocol (GE Healthcare) or Kwik Quant Imager (Kindle Biosciences). Primary antibodies used in the immunoblotting (IB), immunoprecipitation (IP), and Chromatin Immunoprecipitation sequencing (ChIP-seq) assays are as follows: AR_IP, IB, ChIP-Seq (Millipore, 06-680); pS81-AR_IB (Millipore, 07-1375-EMD); RNA Pol II_IP, IB (Abcam, ab5408); ERG_IB (Abcam, a92513); PSA_IB (Dako, A0562); H3-acetyl K27_IP, IB, ChIP Seq (Abcam, ab32104) cPARP_IB (Cell Signaling Technology, 9541s); Cleaved caspase-3_IB (Cell Signaling Technology, 9664t); CDK7_IP, IB (Cell Signaling Technology, 2916s); CDK9_IP, IB (Cell Signaling Technology, 2316s); CDK12_IB (Cell Signaling Technology, 11973S); CDK13_IB (Sigma Cat. #ABE1860); Cyclin H_IB (Cell Signaling Technology, 2927T); HA_IP, IB (Cell Signaling Technology, 2367s); ERK1/2_IP, IB (Cell Signaling Technology, 9107s); phospho-ERK1/2_IB (Cell Signaling Technology, 9101s); phospho-Threonine_IB (Cell Signaling Technology, 9381s); PP2A alpha_IB (Abcam, ab32104); phospho-MED1_IB (Abcam, ab60950); Anti-GST_IB (Cell Signaling Technology, 2624); Anti-AKT_IB (Cell Signaling Technology, 9272); Anti-phosphoAKT_IB(Cell Signaling Technology, 4060); Anti-phospho-AR (Ser-515) _IB (Abeam, ab128250); Anti-RNA Pol 'LIB (Abeam, ab5408); Anti-phospho-pol II (Ser-5)_IB (Abeam, ab ab5095); Anti-phospho-CDK7 (Tlu-170) _IB (Millipore, ABS567); MED1_IP, IB, ChIP Seq (Bethyl, abA300-793A), Ki67_IHC (Cell Signaling Technology, 9661), and GAPDH (14C10), IB (Cell Signaling Technology, 3683s) for loading control.

[2] = residual tumors, 10 mg/kg b.i.d., four weeks

CAK complex-CDK7/CyclinH/MAT1, sequence (P50613 whole entry): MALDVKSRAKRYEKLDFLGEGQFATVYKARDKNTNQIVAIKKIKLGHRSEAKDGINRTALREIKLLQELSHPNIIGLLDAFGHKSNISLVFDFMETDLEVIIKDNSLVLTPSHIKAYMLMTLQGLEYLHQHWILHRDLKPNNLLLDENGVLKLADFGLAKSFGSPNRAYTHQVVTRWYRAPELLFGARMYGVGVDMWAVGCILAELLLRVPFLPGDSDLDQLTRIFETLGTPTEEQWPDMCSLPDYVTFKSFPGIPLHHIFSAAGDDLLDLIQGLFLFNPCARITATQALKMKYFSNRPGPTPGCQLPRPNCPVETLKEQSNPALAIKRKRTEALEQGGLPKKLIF
CAK complex-CDK7/CyclinH/MAT1, sequence (P51946 whole entry partner): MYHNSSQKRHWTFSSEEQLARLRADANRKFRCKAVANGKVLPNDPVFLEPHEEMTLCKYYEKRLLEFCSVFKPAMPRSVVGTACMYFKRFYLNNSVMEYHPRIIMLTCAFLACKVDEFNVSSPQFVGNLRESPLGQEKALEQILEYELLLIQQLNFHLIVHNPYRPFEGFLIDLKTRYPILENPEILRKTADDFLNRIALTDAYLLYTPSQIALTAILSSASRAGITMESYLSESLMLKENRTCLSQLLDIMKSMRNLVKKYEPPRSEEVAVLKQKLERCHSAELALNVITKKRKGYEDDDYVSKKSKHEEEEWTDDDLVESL
CAK complex-CDK7/CyclinH/MAT1, sequence (P51948 whole entry partner): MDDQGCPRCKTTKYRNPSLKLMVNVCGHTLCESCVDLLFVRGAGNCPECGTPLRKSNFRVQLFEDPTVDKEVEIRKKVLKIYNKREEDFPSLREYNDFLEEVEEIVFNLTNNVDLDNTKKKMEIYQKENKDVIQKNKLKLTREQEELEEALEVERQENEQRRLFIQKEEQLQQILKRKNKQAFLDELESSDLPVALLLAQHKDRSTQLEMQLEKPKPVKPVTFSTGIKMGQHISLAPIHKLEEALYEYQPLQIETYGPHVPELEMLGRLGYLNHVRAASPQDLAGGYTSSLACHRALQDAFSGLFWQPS

For `CN(C)C/C=C/C(=O)Nc1ccc(C(=O)Nc2cccc(Nc3ncc(Cl)c(-c4c[nH]c5ccccc45)n3)c2)cc1` [THZ1], the “Threonine phosphorylation of GST-MED1 (aa 1391-1490) at T1457” value [1] was “completely inhibited”, the systemic toxicity (VCaP CRPC xenograft; 10 mg/kg b.i.d., four weeks) was “well tolerated with no treatment-related systemic toxicity observed” and the “tumor p-MED1 levels” value (VCaP CRPC xenograft; 10 mg/kg b.i.d., four weeks) was “significant reduction in p-MED1 levels”. The “plasma PSA expression” value (VCaP CRPC xenograft; 10 mg/kg b.i.d., four weeks, vs vehicle treated mice) was “significantly reduced”, the animal weight (VCaP CRPC xenograft; 10 mg/kg twice daily, 4 weeks) was “does not affect the animal weight” and the tumor volume (VCaP CRPC xenograft; castrated mice, 10 mg/kg b.i.d. intraperitoneally, four weeks, vs vehicle) was “dramatic tumor regression”. The “tumor PSA expression (IHC)” value (VCaP CRPC xenograft; [2]) was “loss of PSA expression”, the “tumor apoptosis (cleaved caspase-3)” value (VCaP CRPC xenograft; [2]) was “increased apoptosis” and the tumor necrosis (VCaP CRPC xenograft; [2]) was “necrosis”. The “tumor proliferative activity (KI-67)” value (VCaP CRPC xenograft; [2]) was “reduced proliferative activity”, the “AR p-S515 levels” value (AR p-S515) was “did not reduce AR p-S515 levels” and the “phosphorylation at Ser5 of RNA Pol II” value (p-MED1 (p-T1457 MED1); VCaP and LNCaP, dose and time course) was “reduced phosphorylation at Ser5 of RNA Poll”. The “p-MED1 levels, dose and time course” value (p-MED1 (p-T1457 MED1); VCaP and LNCaP, standard growth conditions) was “dose- and time-dependent decrease in p-MED1 levels” and the p-MED1 levels (p-MED1 (p-T1457 MED1); VCaP, LNCaP, 22RV1, standard culture conditions, 24 h (THZ1 and LDC also with DHT stimulation)) was “reduced p-MED1 levels”.
